Earlier results as cited in patent US12539323B2, “Anti-psychotic composition and treatment methods” (priority 2017, dated 2026).

Tested on: symptoms of schizophrenia
Conditions: pooled meta-analysis of celecoxib and aspirin, eight studies

SMILES: CC(=O)Oc1ccccc1C(=O)O [aspirin]
- Effect on negative symptoms of schizophrenia: no benefit
- Hedges' g, positive symptoms: −0.189
- Hedges' g, total symptoms (trend level): −0.236
